Assay results published in the supplement of paper PMC11061612.

Key:
[1] = tested on: VAL (B-Cell Non-Hodgkin's Lymphoma); assay: Bliss excess, mean over the matrix (fraction); higher = more synergy
Method in brief: (§1)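 Cell lines in DMEM/F12 or RPMI with 10% FBS were plated in 1536-well plates, held 24 hours at 37°C, 5% CO2, then given two-drug dose matrices for 72 hours (DMSO typically 0.2%). Viability was read by CellTiter-Glo 2.0 luminescence and scaled as inhibition from 0 (vehicle wells) to 1 (blank wells). Combination Emax is the second-highest inhibition in the matrix; Bliss excess is observed combination effect minus expected EA + EB − EA·EB, EA and EB being single-agent effects.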

[2] = tested on: OPM-2 (Plasma Cell Myeloma); assay: as above
Method in brief: as §1

[3] = tested on: CAL-120 (Breast Carcinoma); assay: as above
Method in brief: as §1

[4] = tested on: COLO-680N (Esophageal Squamous Cell Carcinoma); assay: combination Emax (second highest fraction inhibited in the dose matrix, 72 h); higher = more inhibition; extreme values may be limits of the assay
Method in brief: as §1

SF268 (Low Grade Glioma) = assay: as above
Method in brief: as §1

[5] = tested on: HEC-1 (Endometrial Carcinoma); assay: as above
Method in brief: as §1

IST-MES1 (Mesothelioma) = assay: as above
Method in brief: as §1

[6] = tested on: SK-PN-DW (Other Solid Carcinomas); assay: as above
Method in brief: as §1

[7] = tested on: LK-2 (Squamous Cell Lung Carcinoma); assay: as above
Method in brief: as §1

LN-229 (Glioblastoma) = assay: as above
Method in brief: as §1

[8] = tested on: RERF-LC-Sq1 (Squamous Cell Lung Carcinoma); assay: as above
Method in brief: as §1

[9] = tested on: REH (B-Lymphoblastic Leukemia); assay: as above
Method in brief: as §1

[10] = tested on: MFE-280 (Endometrial Carcinoma); assay: as above
Method in brief: as §1

[11] = tested on: CAL-120 (Breast Carcinoma); assay: as above
Method in brief: as §1

[12] = tested on: KE-37 (T-Lymphoblastic Leukemia); assay: as above
Method in brief: as §1

WM278 (Melanoma) = assay: as above
Method in brief: as §1

SF539 (Glioblastoma) = assay: as above
Method in brief: as §1

[13] = tested on: PANC-03-27 (Pancreatic Carcinoma); assay: as above
Method in brief: as §1

[14] = tested on: NCI-H2342 (Lung Adenocarcinoma); assay: as above
Method in brief: as §1

[15] = tested on: 23132-87 (Gastric Carcinoma); assay: as above
Method in brief: as §1
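Wherever Bliss excess, mean over the matrix is given: after 72 h of two-drug dosing.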

SMILES	Bliss excess [1]	Bliss excess [2]	Bliss excess [3]	combination Emax [4]	combination Emax (SF268 (Low Grade Glioma))	combination Emax [5]	combination Emax (IST-MES1 (Mesothelioma))	combination Emax [6]	combination Emax [7]	combination Emax (LN-229 (Glioblastoma))	combination Emax [8]	combination Emax [9]	combination Emax [10]	combination Emax [11]	combination Emax [12]	combination Emax (WM278 (Melanoma))	combination Emax (SF539 (Glioblastoma))	combination Emax [13]	combination Emax [14]	combination Emax [15]
COc1cccc(OCCCN)c1-c1cc(Nc2cnc(C#N)cn2)n[nH]1 [Prexasertib] + CN(C)CCCOc1ccc(-c2ccc3ncc4c(c3c2)n(C2CCOCC2)c(=O)n4C)cn1 [AZD0156] (first compound max 1 µM, 7x7, partner max 1 µM)	-0.0162	0.0204	0.0088	0.414	0.493	0.655	0.218	0.948	0.726	0.725	0.864	0.994	0.441	0.456	1	0.574	0.963	0.902	0.345	0.926
CCN(CCO)CCCOc1ccc2c(Nc3cc(CC(=O)Nc4cccc(F)c4)[nH]n3)ncnc2c1 [AZD2811] + O=C(c1cc(Cc2n[nH]c(=O)c3ccccc23)ccc1F)N1CCN(C(=O)C2CC2)CC1 [Olaparib] (first compound max 1 µM, 7x7, partner max 10 µM)	-0.0246	0.015	0.0019	0.196	0.178	0.0832	0.29	0.689	0.765	0.167	0.219	0.487	0.339	0.293	0.998	0.166	0.502	0.379	0.166	0.246
CC1(C)CCC(CN2CCN(c3ccc(C(=O)NS(=O)(=O)c4ccc(NCC5CCOCC5)c([N+](=O)[O-])c4)c(Oc4cnc5[nH]ccc5c4)c3)CC2)=C(c2ccc(Cl)cc2)C1 [Venetoclax] + C[C@@H](Nc1cc(F)cc(F)c1)c1cc(C(=O)N(C)C)cc2c(=O)cc(N3CCOCC3)oc12 [AZD8186] (first compound max 1 µM, 7x7, partner max 3 µM)	0.0557	-0.0134	-0.0194	0.111	0.127	0.0634	0.176	0.862	0.0674	0.0902	0.121	0.96	0.371	0.12	0.356	0.306	0.287	0.592	0.265	0.0687
NC1(C(=O)N[C@@H](CCO)c2ccc(Cl)cc2)CCN(c2ncnc3[nH]ccc23)CC1 [Capivasertib] + C[C@@H]1COCCN1C2=NC(=NC(=C2)C3(CC3)[S@](=N)(=O)C)C4=C5C=CNC5=NC=C4 [AZD6738] (first compound max 10 µM, 7x7, partner max 10 µM)	-0.0735	-0.0746	-0.0283	0.373	0.644	0.347	0.522	0.925	0.675	0.597	0.873	0.933	0.636	0.708	0.992	0.579	0.879	0.521	0.585	0.616
COc1nnc2ccc(N3CCC(c4ccc(OCCN5CCN(C)C(=O)[C@H]5C)cc4)CC3)nn12 [AZD5153] + Cn1cnc2c(F)c(Nc3ccc(Br)cc3Cl)c(C(=O)NOCCO)cc21 [Selumetinib] (first compound max 1 µM, 7x7, partner max 10 µM)	-0.0157	-0.0136	0.0386	0.378	0.518	0.595	0.641	0.559	0.6	0.511	0.79	0.469	0.361	0.479	0.654	0.799	0.653	0.398	0.347	0.2
Cc1c2c(nn1C)CSCc1cc(n(C)n1)CSc1cc(c3ccccc3c1)OCCCc1c(C(=O)O)n(C)c3c-2c(Cl)ccc13 [AZD5991] + C=CCn1c(=O)c2cnc(Nc3ccc(N4CCN(C)CC4)cc3)nc2n1-c1cccc(C(C)(C)O)n1 [AZD1775] (first compound max 1 µM, partner max 1 µM)	-0.114	-0.0119	-0.0143	0.287	0.577	0.247	0.31	0.962	0.88	0.855	0.785	0.877	0.469	0.405	0.995	0.463	1	0.926	0.306	0.96
COc1cccc2c1C(=O)c1c(O)c3c(c(O)c1C2=O)C[C@@](O)(C(=O)CO)C[C@@H]3O[C@H]1C[C@H](N)[C@H](O)[C@H](C)O1 [Doxorubicin] + Cc1cc2ncnn2cc1Nc1ncc2c(n1)n(C1CCOCC1)c(=O)n2C [AZD7648] (first compound max 1 µM, 7x7, partner max 10 µM)	0.0974	0.0221	0.0064	0.67	0.538	0.367	0.767	0.814	0.632	0.609	0.627	1	0.835	0.47	1	0.631	0.934	0.686	0.349	0.82
C=CCn1c(=O)c2cnc(Nc3ccc(N4CCN(C)CC4)cc3)nc2n1-c1cccc(C(C)(C)O)n1 [AZD1775] + C1CN(CCC1(C(=O)N[C@@H](CCO)C2=CC=C(C=C2)Cl)N)C3=NC=NC4=C3C=CN4 [Capivasertib] (first compound max 3 µM, partner max 3 µM)	-0.0252	0.0001	-0.0265	0.306	0.456	0.615	0.292	0.783	0.941	0.419	0.844	0.93	0.451	0.727	1	0.389	0.967	0.771	0.282	0.829
Cc1cc2ncnn2cc1Nc1ncc2c(n1)n(C1CCOCC1)c(=O)n2C [AZD7648] + CCN(CCO)CCCOc1ccc2c(Nc3cc(CC(=O)Nc4cccc(F)c4)[nH]n3)ncnc2c1 [AZD2811] (first compound max 10 µM, 7x7, partner max 1 µM)	-0.0799	0.0791	-0.0528	0.236	0.19	0	0.31	0.696	0.742	0.199	0.261	0.51	0.377	0.334	1	0.157	0.462	0.334	0.324	0
COc1cccc(OCCCN)c1-c1cc(Nc2cnc(C#N)cn2)n[nH]1 [Prexasertib] + O=C(c1cc(Cc2n[nH]c(=O)c3ccccc23)ccc1F)N1CCN(C(=O)C2CC2)CC1 [Olaparib] (first compound max 1 µM, 7x7, partner max 10 µM)	-0.0518	-0.0628	-0.0552	0.342	0.623	0.416	0.283	0.937	0.799	0.551	0.833	0.987	0.416	0.526	1	0.627	1	0.918	0.302	0.87
CC1(C)CCC(CN2CCN(c3ccc(C(=O)NS(=O)(=O)c4ccc(NCC5CCOCC5)c([N+](=O)[O-])c4)c(Oc4cnc5[nH]ccc5c4)c3)CC2)=C(c2ccc(Cl)cc2)C1 [Venetoclax] + Cc1cc2ncnn2cc1Nc1ncc2c(n1)n(C1CCOCC1)c(=O)n2C [AZD7648] (first compound max 1 µM, 7x7, partner max 10 µM)	0.012	-0.0263	-0.0338	0.161	0.268	0.167	0.195	0.856	0.266	0.115	0.229	0.875	0.319	0.125	0.404	0.269	0.341	0.584	0.214	0.152
Cc1cc2ncnn2cc1Nc1ncc2c(n1)n(C1CCOCC1)c(=O)n2C [AZD7648] + CN(C)CCCOc1ccc(-c2ccc3ncc4c(c3c2)n(C2CCOCC2)c(=O)n4C)cn1 [AZD0156] (first compound max 10 µM, 7x7, partner max 1 µM)	-0.0921	-0.0303	-0.0197	0.188	0.187	0.002	0.239	0.303	0.269	0.146	0.197	0.258	0.359	0.414	0.659	0.188	0.352	0.318	0.249	0.0669
CC(=O)c1c(C)c2cnc(Nc3ccc(N4CCNCC4)cn3)nc2n(C2CCCC2)c1=O [Palbociclib] + Cc1c2c(nn1C)CSCc1cc(n(C)n1)CSc1cc(c3ccccc3c1)OCCCc1c(C(=O)O)n(C)c3c-2c(Cl)ccc13 [AZD5991] (first compound max 10 µM, 7x7, partner max 1 µM)	0.0533	0.0009	-0.0209	0.237	0.362	0.153	0.344	0.787	0.33	0.228	0.594	0.835	0.227	0.134	0.687	0.156	0.293	0.202	0.348	0.305
